Data on one compound can be found in patent US12594268B2, “Methods of treating Fabry disease in patients having a mutation in the GLA gene” (Amicus Therapeutics, Inc., priority 2018, dated 2026).

Assay [1] concerns mutant form of α-Gal A expressed in HEK-293 cells. The assay is described as follows: HEK assay amenability criteria (relative increase ≥1.20-fold and absolute increase ≥3.0% wild-type).
Protocol: The α-Gal A activity was measured in lysates prepared from HEK-293 cells transiently transfected with the indicated mutant form of α-Gal A and incubated in the absence or presence of 10 μM migalastat for 5 days. The α-Gal A activity is expressed as the nmoles of free 4-MU released per milligram of protein per hour (nmol/mg/hr). Baseline α-Gal A activity and α-Gal A activity after incubation with 10 μM migalastat, were additionally expressed as a percentage of baseline wild-type α-Gal A activity (% WT). The wild-type α-Gal A activity that was used to calculate these percentages was the average activity measured in lysates from wild-type transfected cells, incubated in the absence of migalastat, measured in parallel.
In another assay the target is T1, α-Gal A mutant form N53K (Homo sapiens, UniProt P06280, N53K).
T1 construct: expressed in transfected cells; host or cells: HEK-293
T1 sequence (P06280 32-429 N53K): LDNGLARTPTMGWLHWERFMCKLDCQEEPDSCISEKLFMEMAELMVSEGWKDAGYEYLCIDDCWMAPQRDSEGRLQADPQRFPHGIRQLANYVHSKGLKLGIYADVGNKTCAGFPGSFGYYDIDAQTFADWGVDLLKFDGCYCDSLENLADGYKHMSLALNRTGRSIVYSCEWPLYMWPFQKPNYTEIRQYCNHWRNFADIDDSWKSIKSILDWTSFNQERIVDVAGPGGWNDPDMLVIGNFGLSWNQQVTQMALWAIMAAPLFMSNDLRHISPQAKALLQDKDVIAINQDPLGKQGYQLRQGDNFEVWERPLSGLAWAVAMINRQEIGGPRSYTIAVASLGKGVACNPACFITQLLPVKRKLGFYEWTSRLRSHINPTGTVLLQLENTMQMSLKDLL
The assay can be described thus: α-Gal A activity in lysates of transfected HEK-293 cells, N53K. It counts as cell-based. The procedure: (§1) Baseline and 10 μM migalastat α-Gal A activity: Differences in the α-Gal A activity between lysates incubated in the absence and presence of 10 μM migalastat were determined using a one-tailed, Mann Whitney U test; an increase at 10 μM migalastat with a p<0.05 was considered significant.
(§2) 10 μM migalastat α-Gal A activity (% WT)=(α-Gal A activity in mutant transfected cell lysates incubated with 10 μM migalastat÷α-Gal A activity in wild-type transfected cell lysates without migalastat)*100.
(§3) Absolute increase (% WT)=is the 10 μM migalastat α-Gal A activity (% WT) minus the baseline α-Gal A activity (% WT).
(§4) Relative increase is the 10 μM migalastat α-Gal A activity in mutant transfected cell lysates÷baseline α-Gal A activity in mutant transfected cell lysates incubated without migalastat.

The target in assay [2] is T2, α-Gal A mutant form L189F (Homo sapiens, UniProt P06280, L189F).
T2 construct: expressed in transfected cells; host or cells: HEK-293
T2 sequence (P06280 32-429 L189F): T1 sequence (P06280 32-429 N53K) with K22N, L158F
The assay is described as follows: α-Gal A activity in lysates of transfected HEK-293 cells, L189F. In kind it is cell-based. The protocol:
as §1, §2, §3, §4

The next assay deals with T3, α-Gal A mutant form Q57R (Homo sapiens, UniProt P06280, Q57R).
T3 construct: expressed in transfected cells; host or cells: HEK-293
T3 sequence (P06280 32-429 Q57R): T1 sequence (P06280 32-429 N53K) with K22N, Q26R
The assay is described as follows: α-Gal A activity in lysates of transfected HEK-293 cells, Q57R. It counts as cell-based. The protocol: as §1, §2, §3, §4

In assay [3] the target is T4, α-Gal A mutant form T412P (Homo sapiens, UniProt P06280, T412P).
T4 construct: expressed in transfected cells; host or cells: HEK-293
T4 sequence (P06280 32-429 T412P): T1 sequence (P06280 32-429 N53K) with K22N, T381P
The assay can be described thus: α-Gal A activity in lysates of transfected HEK-293 cells, T412P. In kind it is cell-based. The protocol:
as §1, §2, §3, §4

In assay [4] the target is T5, α-Gal A mutant form P323T (Homo sapiens, UniProt P06280, P323T).
T5 construct: expressed in transfected cells; host or cells: HEK-293
T5 sequence (P06280 32-429 P323T): T1 sequence (P06280 32-429 N53K) with K22N, P292T
The assay can be described thus: α-Gal A activity in lysates of transfected HEK-293 cells, P323T. In kind it is cell-based. The protocol:
as §1, §2, §3, §4

The mark [5] stands for this setting: 10 μM migalastat minus baseline.
Setting [6] is: 10 μM migalastat ÷ baseline activity.
The mark [7] stands for this setting: HEK-293 lysates, 10 μM migalastat, 5 days, mean ± SEM.

Residue numbers refer to the chain shown, from its start.

For `OC[C@H]1NC[C@H](O)[C@@H](O)[C@H]1O` [migalastat, (2R,3S,4R,5S)-2-(hydroxymethyl) piperdine-3,4,5-triol], the “in vitro response to incubation with migalastat (amenability)” value in assay [1] (Table 2, mutations D33H, G35A, Y88S, T194A, W204G, Y216S, Q250K, and R392T) is recorded as “met amenability criteria”; in assay [1] (Table 3, mutations printed as D33H, G35A, Y88S, T194A, W204G, Y216S, Q250K, and R392T), “met amenability criteria”; in assay [1] (Table 4, mutations V22G, N34H, G80V, Q107R, Y152D, A156S, L189F, W204L, S238G, 1239M, A257V, P259Q, N320H, P323T, E338V, P380L, and T412P), “met amenability criteria”. The “Absolute increase (% WT)” value on α-Gal A mutant form N53K (setting [5]) amounted to 24.0 % WT; in assay [2] (setting [5]), 15.3 % WT; at α-Gal A mutant form Q57R (setting [5]), 24.0 % WT; in assay [3] (setting [5]), 16.9 % WT; in assay [4] (setting [5]), 12.3 % WT. Also, the Relative increase amounted to 2.70 on α-Gal A mutant form N53K (setting [6]); 1.22 in assay [2] (setting [6]); 1.30 on α-Gal A mutant form Q57R (setting [6]); 11.21 in assay [3] (setting [6]); 1.21 in assay [4] (setting [6]). Moreover, the “10 μM migalastat α-Gal A activity” value at α-Gal A mutant form N53K (setting [7]) worked out at 13895 ± 1270 nmol/mg/h; in assay [2] (setting [7]), 27388 ± 1605 nmol/mg/h; at α-Gal A mutant form Q57R (setting [7]), 26357 ± 916 nmol/mg/h; in assay [3] (setting [7]) it was 7159 ± 459 nmol/mg/h; in assay [4] (setting [7]), 29631 ± 1144 nmol/mg/h. Also, the “10 μM migalastat α-Gal A activity (% WT)” value at α-Gal A mutant form N53K (setting [7]) came to 38.6 ± 2.5 % WT; in assay [2] (setting [7]), 84.6 ± 3.8 % WT; on α-Gal A mutant form Q57R (setting [7]), 105.0 ± 3.0 % WT; in assay [3] (setting [7]) it was 18.6 ± 1.2 % WT; in assay [4] (setting [7]), 71.3 ± 4.1 % WT.
